Measured values from US7381521B2, “Anti-pathogenic composition useful in blood preservation” (Altachem Pharma Ltd., priority 2001, dated 2008).

What was measured:
S. aureus ATCC 6538 [1] = experiment: Test 2 (DGHM), growth inhibition by dilutions, 72 hours at 37° C.; type: cell-based, Staphylococcus aureus
Experimental: (§1) Another test was carried out a basis of the following solutions • 100 ml of a 0.1% solution of chlorohexidine digluconate (pH 6); and • 100 ml of a 0.1% solution of Bardac22®.
(§2) The activity of these solutions, alone or in combination, was more particularly tested in respect of Staphylococcus aureus ATCC 6538, Escherichia coli ATCC 11229 and Candida albicans ATCC 10231.
(§3) The tests were conducted in accordance with the procedure described in Chapter I/2.1 and 2.2 of Tichtlinien für die Prüfung und Bewertung chemischer Desinfektionsverfahren der DGHM/Guidelines for Testing and Evaluating Chemical Disinfection Processes of DGHM as at 1.1, 1981.
Tables IX, X and XI respectively illustrate the bactericidal and fungicidal activity of a 0.1% aqueous solution of chlorohexidine digluconate, a 0.1% aqueous solution of Bardac22® and a mixture of equal parts of both compounds. The procedures of which these Tables illustrate the results comprise incubation of 72 hours at 37° C. and the use of the following inactivating substances as controls: • A: 3% Tween®80+0.3% lecithin+0.1% cysteine • B: 3% Tween®80+3% saponin+0.1% cysteine+0.1% histidine; • C: 3% Tween®80+0.3% lecithin+0.1% histidine+0.5% sodium thiosulphate.
In these Tables, the sign “+” indicates an increase and the sign “−” denotes the absence of growth.

S. aureus ATCC 6538 [2] = experiment: Test 2 (DGHM), action as a function of disinfection time at 22° C., 8 × 10^8 organisms/ml; type: cell-based, Staphylococcus aureus
Experimental: as §1, §2, §3

[3] = 0.00625% vol/vol, inactivator A
[4] = 0.00625% vol/vol, inactivator B
[5] = 0.00625% vol/vol, inactivator C
[6] = 0.00625% vol/vol, no inactivator
[7] = 0.0125% vol/vol, no inactivator

## CCCCCCCCCC[N+](C)(C)CCCCCCCCCC.[Cl-] [Bardac ®, didecyl dimethyl ammonium chloride]
S. aureus ATCC 6538 [1]
  concentration of active substance inhibiting growth: 0.0001%
  dilution of the 0.1% solution inhibiting growth: 0.1%
S. aureus ATCC 6538 [1]; [3]
  growth: +
S. aureus ATCC 6538 [1]; [4]
  growth: +
S. aureus ATCC 6538 [1]; [5]
  growth: +
S. aureus ATCC 6538 [1]; [6]
  growth: +
S. aureus ATCC 6538 [1]; 0.0125% vol/vol, inactivator A
  growth: +
S. aureus ATCC 6538 [1]; 0.0125% vol/vol, inactivator B
  growth: +
S. aureus ATCC 6538 [1]; 0.0125% vol/vol, inactivator C
  growth: +
S. aureus ATCC 6538 [1]; [7]
  growth: +
S. aureus ATCC 6538 [1]; 0.025% vol/vol, inactivator A
  growth: +
S. aureus ATCC 6538 [1]; 0.025% vol/vol, inactivator B
  growth: +
S. aureus ATCC 6538 [1]; 0.025% vol/vol, inactivator C
  growth: +
S. aureus ATCC 6538 [1]; 0.025% vol/vol, no inactivator
  growth: +
S. aureus ATCC 6538 [1]; 0.05% vol/vol, inactivator A
  growth: +
S. aureus ATCC 6538 [1]; 0.05% vol/vol, inactivator B
  growth: +
S. aureus ATCC 6538 [1]; 0.05% vol/vol, inactivator C
  growth: +
S. aureus ATCC 6538 [1]; 0.05% vol/vol, no inactivator
  growth: +
S. aureus ATCC 6538 [1]; 0.1% vol/vol, inactivator A
  growth: +
S. aureus ATCC 6538 [1]; 0.1% vol/vol, inactivator B
  growth: +
S. aureus ATCC 6538 [1]; 0.1% vol/vol, inactivator C
  growth: +
S. aureus ATCC 6538 [1]; 0.1% vol/vol, no inactivator
  growth: −
S. aureus ATCC 6538 [1]; 0.5% vol/vol, inactivator A
  growth: +
S. aureus ATCC 6538 [1]; 0.5% vol/vol, inactivator B
  growth: +
S. aureus ATCC 6538 [1]; 0.5% vol/vol, inactivator C
  growth: +
S. aureus ATCC 6538 [1]; 0.5% vol/vol, no inactivator
  growth: −
S. aureus ATCC 6538 [1]; 1.0% vol/vol, inactivator A
  growth: +
S. aureus ATCC 6538 [1]; 1.0% vol/vol, inactivator B
  growth: +
S. aureus ATCC 6538 [1]; 1.0% vol/vol, inactivator C
  growth: +
S. aureus ATCC 6538 [1]; 1.0% vol/vol, no inactivator
  growth: −
S. aureus ATCC 6538 [2]; 0.05% vol/vol, 1 min
  growth: +
S. aureus ATCC 6538 [2]; 0.05% vol/vol, 3 min
  growth: +
S. aureus ATCC 6538 [2]; 0.05% vol/vol, 5 min
  growth: +
S. aureus ATCC 6538 [2]; 0.05% vol/vol, 15 min
  growth: +
S. aureus ATCC 6538 [2]; 0.05% vol/vol, 30 min
  growth: +
S. aureus ATCC 6538 [2]; 0.05% vol/vol, 60 min
  growth: +
S. aureus ATCC 6538 [2]; 0.1% vol/vol, 1 min
  growth: +
S. aureus ATCC 6538 [2]; 0.1% vol/vol, 3 min
  growth: +
S. aureus ATCC 6538 [2]; 0.1% vol/vol, 5 min
  growth: +
S. aureus ATCC 6538 [2]; 0.1% vol/vol, 15 min
  growth: +
S. aureus ATCC 6538 [2]; 0.1% vol/vol, 30 min
  growth: +
S. aureus ATCC 6538 [2]; 0.1% vol/vol, 60 min
  growth: +
S. aureus ATCC 6538 [2]; 0.5% vol/vol, 1 min
  growth: +
S. aureus ATCC 6538 [2]; 0.5% vol/vol, 3 min
  growth: +
S. aureus ATCC 6538 [2]; 0.5% vol/vol, 5 min
  growth: +
S. aureus ATCC 6538 [2]; 0.5% vol/vol, 15 min
  growth: +
S. aureus ATCC 6538 [2]; 0.5% vol/vol, 30 min
  growth: +
S. aureus ATCC 6538 [2]; 0.5% vol/vol, 60 min
  growth: +
S. aureus ATCC 6538 [2]; 1% vol/vol, 1 min
  growth: +
S. aureus ATCC 6538 [2]; 1% vol/vol, 3 min
  growth: +
S. aureus ATCC 6538 [2]; 1% vol/vol, 5 min
  growth: +
S. aureus ATCC 6538 [2]; 1% vol/vol, 15 min
  growth: +
S. aureus ATCC 6538 [2]; 1% vol/vol, 30 min
  growth: −
S. aureus ATCC 6538 [2]; 1% vol/vol, 60 min
  growth: −
S. aureus ATCC 6538 [2]; 5% vol/vol, 1 min
  growth: +
S. aureus ATCC 6538 [2]; 5% vol/vol, 3 min
  growth: +
S. aureus ATCC 6538 [2]; 5% vol/vol, 5 min
  growth: +
S. aureus ATCC 6538 [2]; 5% vol/vol, 15 min
  growth: −
S. aureus ATCC 6538 [2]; 5% vol/vol, 30 min
  growth: −
S. aureus ATCC 6538 [2]; 5% vol/vol, 60 min
  growth: −
S. aureus ATCC 6538 [2]; 10% vol/vol, 1 min
  growth: +
S. aureus ATCC 6538 [2]; 10% vol/vol, 3 min
  growth: −
S. aureus ATCC 6538 [2]; 10% vol/vol, 5 min
  growth: −
S. aureus ATCC 6538 [2]; 10% vol/vol, 15 min
  growth: −
S. aureus ATCC 6538 [2]; 10% vol/vol, 30 min
  growth: −
S. aureus ATCC 6538 [2]; 10% vol/vol, 60 min
  growth: −
S. aureus ATCC 6538 [2]; 25% vol/vol, 1 min
  growth: +
S. aureus ATCC 6538 [2]; 25% vol/vol, 3 min
  growth: −
S. aureus ATCC 6538 [2]; 25% vol/vol, 5 min
  growth: −
S. aureus ATCC 6538 [2]; 25% vol/vol, 15 min
  growth: −
S. aureus ATCC 6538 [2]; 25% vol/vol, 30 min
  growth: −
S. aureus ATCC 6538 [2]; 25% vol/vol, 60 min
  growth: −

## [H]/N=C(\N/C(=N/[H])NCCCCCCNC(=N)NC(=N)Nc1ccc(Cl)cc1)Nc1ccc(Cl)cc1 [Chlorhexidine, chlorohexidine digluconate, reference compound]
S. aureus ATCC 6538 [1]
  concentration of active substance inhibiting growth: 0.0005%
  dilution of the 0.1% solution inhibiting growth: 0.5%
S. aureus ATCC 6538 [1]; [3]
  growth: +
S. aureus ATCC 6538 [1]; [4]
  growth: +
S. aureus ATCC 6538 [1]; [5]
  growth: +
S. aureus ATCC 6538 [1]; [6]
  growth: +
S. aureus ATCC 6538 [1]; 0.0125% vol/vol, inactivator A
  growth: +
S. aureus ATCC 6538 [1]; 0.0125% vol/vol, inactivator B
  growth: +
S. aureus ATCC 6538 [1]; 0.0125% vol/vol, inactivator C
  growth: +
S. aureus ATCC 6538 [1]; [7]
  growth: +
S. aureus ATCC 6538 [1]; 0.025% vol/vol, inactivator A
  growth: +
S. aureus ATCC 6538 [1]; 0.025% vol/vol, inactivator B
  growth: +
S. aureus ATCC 6538 [1]; 0.025% vol/vol, inactivator C
  growth: +
S. aureus ATCC 6538 [1]; 0.025% vol/vol, no inactivator
  growth: +
S. aureus ATCC 6538 [1]; 0.05% vol/vol, inactivator A
  growth: +
S. aureus ATCC 6538 [1]; 0.05% vol/vol, inactivator B
  growth: +
S. aureus ATCC 6538 [1]; 0.05% vol/vol, inactivator C
  growth: +
S. aureus ATCC 6538 [1]; 0.05% vol/vol, no inactivator
  growth: +
S. aureus ATCC 6538 [1]; 0.1% vol/vol, inactivator A
  growth: +
S. aureus ATCC 6538 [1]; 0.1% vol/vol, inactivator B
  growth: +
S. aureus ATCC 6538 [1]; 0.1% vol/vol, inactivator C
  growth: +
S. aureus ATCC 6538 [1]; 0.1% vol/vol, no inactivator
  growth: +
S. aureus ATCC 6538 [1]; 0.5% vol/vol, inactivator A
  growth: +
S. aureus ATCC 6538 [1]; 0.5% vol/vol, inactivator B
  growth: +
S. aureus ATCC 6538 [1]; 0.5% vol/vol, inactivator C
  growth: +
S. aureus ATCC 6538 [1]; 0.5% vol/vol, no inactivator
  growth: −
S. aureus ATCC 6538 [1]; 1.0% vol/vol, inactivator A
  growth: +
S. aureus ATCC 6538 [1]; 1.0% vol/vol, inactivator B
  growth: +
S. aureus ATCC 6538 [1]; 1.0% vol/vol, inactivator C
  growth: +
S. aureus ATCC 6538 [1]; 1.0% vol/vol, no inactivator
  growth: −
S. aureus ATCC 6538 [2]; 0.05% vol/vol, 1 min
  growth: +
S. aureus ATCC 6538 [2]; 0.05% vol/vol, 3 min
  growth: +
S. aureus ATCC 6538 [2]; 0.05% vol/vol, 5 min
  growth: +
S. aureus ATCC 6538 [2]; 0.05% vol/vol, 15 min
  growth: +
S. aureus ATCC 6538 [2]; 0.05% vol/vol, 30 min
  growth: +
S. aureus ATCC 6538 [2]; 0.05% vol/vol, 60 min
  growth: +
S. aureus ATCC 6538 [2]; 0.1% vol/vol, 1 min
  growth: +
S. aureus ATCC 6538 [2]; 0.1% vol/vol, 3 min
  growth: +
S. aureus ATCC 6538 [2]; 0.1% vol/vol, 5 min
  growth: +
S. aureus ATCC 6538 [2]; 0.1% vol/vol, 15 min
  growth: +
S. aureus ATCC 6538 [2]; 0.1% vol/vol, 30 min
  growth: +
S. aureus ATCC 6538 [2]; 0.1% vol/vol, 60 min
  growth: +
S. aureus ATCC 6538 [2]; 0.5% vol/vol, 1 min
  growth: +
S. aureus ATCC 6538 [2]; 0.5% vol/vol, 3 min
  growth: +
S. aureus ATCC 6538 [2]; 0.5% vol/vol, 5 min
  growth: +
S. aureus ATCC 6538 [2]; 0.5% vol/vol, 15 min
  growth: +
S. aureus ATCC 6538 [2]; 0.5% vol/vol, 30 min
  growth: +
S. aureus ATCC 6538 [2]; 0.5% vol/vol, 60 min
  growth: +
S. aureus ATCC 6538 [2]; 1% vol/vol, 1 min
  growth: +
S. aureus ATCC 6538 [2]; 1% vol/vol, 3 min
  growth: +
S. aureus ATCC 6538 [2]; 1% vol/vol, 5 min
  growth: +
S. aureus ATCC 6538 [2]; 1% vol/vol, 15 min
  growth: +
S. aureus ATCC 6538 [2]; 1% vol/vol, 30 min
  growth: +
S. aureus ATCC 6538 [2]; 1% vol/vol, 60 min
  growth: +
S. aureus ATCC 6538 [2]; 5% vol/vol, 1 min
  growth: +
S. aureus ATCC 6538 [2]; 5% vol/vol, 3 min
  growth: +
S. aureus ATCC 6538 [2]; 5% vol/vol, 5 min
  growth: +
S. aureus ATCC 6538 [2]; 5% vol/vol, 15 min
  growth: +
S. aureus ATCC 6538 [2]; 5% vol/vol, 30 min
  growth: +
S. aureus ATCC 6538 [2]; 5% vol/vol, 60 min
  growth: +
S. aureus ATCC 6538 [2]; 10% vol/vol, 1 min
  growth: +
S. aureus ATCC 6538 [2]; 10% vol/vol, 3 min
  growth: +
S. aureus ATCC 6538 [2]; 10% vol/vol, 5 min
  growth: +
S. aureus ATCC 6538 [2]; 10% vol/vol, 15 min
  growth: +
S. aureus ATCC 6538 [2]; 10% vol/vol, 30 min
  growth: +
S. aureus ATCC 6538 [2]; 10% vol/vol, 60 min
  growth: −
S. aureus ATCC 6538 [2]; 25% vol/vol, 1 min
  growth: +
S. aureus ATCC 6538 [2]; 25% vol/vol, 3 min
  growth: +
S. aureus ATCC 6538 [2]; 25% vol/vol, 5 min
  growth: +
S. aureus ATCC 6538 [2]; 25% vol/vol, 15 min
  growth: +
S. aureus ATCC 6538 [2]; 25% vol/vol, 30 min
  growth: −
S. aureus ATCC 6538 [2]; 25% vol/vol, 60 min
  growth: −
